Test results reported in ChEMBL document CHEMBL1151285, “Dammarane triterpenes from the hypocotyls and fruits of Ceriops tagal” (J Nat Prod, 2005).
Converted amounts (≈) assume the structure as drawn.

Experiments:
Assay type in all cases: functional, cell-based
KB = assay: Cytotoxicity against human KB cells by colorimetric assay
[1] = Cytotoxicity against human BC cells by colorimetric assay
NCI-H187 = assay: Cytotoxicity against human NCI-H187 cells by colorimetric assay

| SMILES | IC50 (KB) [µg/mL] | IC50 [1] [µg/mL] | IC50 (NCI-H187) [µg/mL] |
| --- | --- | --- | --- |
| C=C(C)[C@@H]1CC[C@]2(C(=O)O)CC[C@]3(C)[C@H](CC[C@@H]4[C@@]5(C)CC[C@H](OC(=O)/C=C/c6ccc(O)c(OC)c6)C(C)(C)[C@@H]5CC[C@]43C)[C@@H]12 | 3.8 (≈ 6 µM) | 3 (≈ 4.74 µM) | 1.8 (≈ 2.84 µM) |
| Cc1c2ccncc2c(C)c2c1[nH]c1ccccc12 [ELLIPTECINE] | 0.3 (≈ 1.22 µM) | 0.3 (≈ 1.22 µM) | 0.3 (≈ 1.22 µM) |
